The supplement of paper PMC10307832

Legend:
Assay in all cases: relative viability (nuclei count vs DMSO), 5 days (fraction); higher = more cells survive
[1] = compound: CCC1=CN=CN=C1N2CCN(CC2)CC3=NC4=C(N3)C=C(C=C4)C(F)(F)F + C[C@]1(O)C[C@@H](c2nc(-c3ccc4ccc(-c5ccccc5)nc4c3)c3c(N)nccn32)C1 [Linsitinib] (partner 1 µM)
Outline: (§1)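 After 5 days of treatment, lung cancer cells in 1536-well plates were fixed and stained in a single step (final 0.05% Triton X-100, 1% formaldehyde, 1 ug/ml Hoechst) and their nuclei counted on 4× images. Treatment had been applied by pin tool the day after seeding as one drug alone or as a fixed anchor-drug dose with five library-drug doses (not always all listed) in √10 steps. Relative viability is the nuclei count of treated wells divided by that of vehicle wells, and values are medians of duplicate plates.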

[2] = compound: CCC1=CN=CN=C1N2CCN(CC2)CC3=NC4=C(N3)C=C(C=C4)C(F)(F)F + N=C(N)NC(=N)NCCc1ccccc1 [Phenformin] (partner 250 µM)
Outline: as §1

[3] = compound: CCn1c(-c2nonc2N)nc2cnc(Oc3cccc(NC(=O)c4ccc(OCCN5CCOCC5)cc4)c3)cc21 + CC(=O)c1c(C)c2cnc(Nc3ccc(N4CCNCC4)cn3)nc2n(C2CCCC2)c1=O [Palbociclib] (partner 0.5 µM)
Outline: as §1

Mirin + Linsitinib = compound: N=C1NC(=O)/C(=C/c2ccc(O)cc2)S1 [Mirin] + C[C@]1(O)C[C@@H](c2nc(-c3ccc4ccc(-c5ccccc5)nc4c3)c3c(N)nccn32)C1 [Linsitinib] (partner 1 µM)
Outline: as §1

## UMC-11
[1]; first compound 0.04 µM
  relative viability: 1.03
[1]; first compound 0.1265 µM
  relative viability: 1.02
[1]; first compound 0.4 µM
  relative viability: 1.03
[1]; first compound 1.265 µM
  relative viability: 0.958
[1]; first compound 4 µM
  relative viability: 0.944
[2]; first compound 0.04 µM
  relative viability: 0.327
[2]; first compound 0.1265 µM
  relative viability: 0.3
[2]; first compound 0.4 µM
  relative viability: 0.319
[2]; first compound 1.265 µM
  relative viability: 0.279
[2]; first compound 4 µM
  relative viability: 0.294
[3]; first compound 0.04 µM
  relative viability: 0.277
[3]; first compound 0.1265 µM
  relative viability: 0.379
[3]; first compound 0.4 µM
  relative viability: 0.269
[3]; first compound 1.265 µM
  relative viability: 0.151
[3]; first compound 4 µM
  relative viability: 0.248
Mirin + Linsitinib; first compound 0.25 µM
  relative viability: 1
Mirin + Linsitinib; first compound 0.7906 µM
  relative viability: 0.963
Mirin + Linsitinib; first compound 2.5 µM
  relative viability: 1.07
Mirin + Linsitinib; first compound 7.906 µM
  relative viability: 0.803
Mirin + Linsitinib; first compound 25 µM
  relative viability: 0.66
